Broadly, the EC50 is the concentration that produces a half-maximal response.

Here are results for 20 compounds from patent US8987265B2, “Substituted 1,3,5-triazine derivatives of fused bicyclic oxalamide compounds for treatment of Hepatitis C” (priority 2012, dated 2015).

For one test, the system named is HCV pseudoparticles, genotype 1a (H77C) E1 and E2 envelope. The test can be described thus: HCV pseudoparticle infection assay (luciferase, Huh7 cells). As to conditions: Hepatitis C virus, Huh-7, 48 h, read-out: EC50 (nM) 1a (H77C). Format: cell-based.
As to `O=C(C(=O)N1CC2CN(C(=O)c3ccc(Nc4nc(NC5(c6ccc(Cl)cc6)CC5)nc(OCC(F)(F)F)n4)cc3)CC2C1)N1CCc2ccccc2C1` (centres unmarked) [Compound 1014], the half-maximal effective concentration (EC50) was 0.01 to 10 nM.

For `O=C(Nc1nncs1)C(=O)N1CC2CN(C(=O)c3ccc(Nc4nc(NC5(c6ccc(Cl)cc6)CC5)nc(OCC(F)(F)F)n4)cc3)CC2C1` (centres unmarked) [Compound 1007], the EC50 is 0.01 to 10 nM.

For the compound `O=C(Nc1ccc(F)cc1)C(=O)N1CC2CN(C(=O)c3ccc(Nc4nc(NC5(c6ccc(Cl)cc6)CC5)nc(OCC(F)(F)F)n4)cc3)CC2C1` (centres unmarked) [Compound 1008], the EC50 was in the range of 0.01 to 10 nM.

Take `O=C(Nc1ccc(F)cc1F)C(=O)N1CC2CN(C(=O)c3ccc(Nc4nc(NC5(c6ccc(Cl)cc6)CC5)nc(OCC(F)(F)F)n4)cc3)CC2C1` (centres unmarked) [Compound 1018]: the EC50 is 0.01 to 10 nM.

As to `Cc1nnc(NC(=O)C(=O)N2CC3CN(C(=O)c4ccc(Nc5nc(NC6(c7ccc(Cl)cc7)CC6)nc(OCC(F)(F)F)n5)cc4)CC3C2)s1` (centres unmarked) [Compound 1016], the EC50 lay in the range of 0.01 to 10 nM.

`Cc1cc(NC(=O)C(=O)N2CC3CN(C(=O)c4ccc(Nc5nc(NC6(c7ccc(Cl)cc7)CC6)nc(OCC(F)(F)F)n5)cc4)CC3C2)no1` (centres unmarked) [Compound 1009]: the EC50 fell in the range of 0.01 to 10 nM.

`O=C(Nc1cccc(F)c1)C(=O)N1CC2CN(C(=O)c3ccc(Nc4nc(NC5(c6ccc(Cl)cc6)CC5)nc(OCC(F)(F)F)n4)cc3)CC2C1` (centres unmarked) [Compound 1006]: the EC50 lay in the range of 0.01 to 10 nM.

On to `O=C(Nc1nccs1)C(=O)N1CC2CN(C(=O)c3ccc(Nc4nc(NC5(c6ccc(Cl)cc6)CC5)nc(OCC(F)(F)F)n4)cc3)CC2C1` (centres unmarked) [Compound 1020], for which the EC50 lay in the range of 0.01 to 10 nM.

In the case of `O=C(C(=O)N1CC2CN(C(=O)c3ccc(Nc4nc(NC5(c6ccc(Cl)cc6)CC5)nc(OCC(F)(F)F)n4)cc3)CC2C1)N1CCCCC1` (centres unmarked) [Compound 1013], the EC50 lay in the range of 0.01 to 10 nM.

Take `O=C(C(=O)N1CC2CN(C(=O)c3ccc(Nc4nc(NC5(c6ccc(Cl)cc6)CC5)nc(OCC(F)(F)F)n4)cc3)CC2C1)N1CCOCC1` (centres unmarked) [Compound 1004]: the half-maximal effective concentration (EC50) was 0.01 to 10 nM.

Turning to `Cc1ccc(NC(=O)C(=O)N2CC3CN(C(=O)c4ccc(Nc5nc(NC6(c7ccc(Cl)cc7)CC6)nc(OCC(F)(F)F)n5)cc4)CC3C2)cc1` (centres unmarked) [Compound 1001], the EC50 fell in the range of 0.01 to 10 nM.

As to `O=C(NC1CCCCC1)C(=O)N1CC2CN(C(=O)c3ccc(Nc4nc(NC5(c6ccc(Cl)cc6)CC5)nc(OCC(F)(F)F)n4)cc3)CC2C1` (centres unmarked) [Compound 1015], the EC50 was 0.01 to 10 nM.

As for `CCc1nnc(NC(=O)C(=O)N2CC3CN(C(=O)c4ccc(Nc5nc(NC6(c7ccc(Cl)cc7)CC6)nc(OCC(F)(F)F)n5)cc4)CC3C2)s1` (centres unmarked) [Compound 1019], the 50% effective concentration (EC50) is 0.01 to 10 nM.

`O=C(Nc1cc(F)cc(F)c1)C(=O)N1CC2CN(C(=O)c3ccc(Nc4nc(NC5(c6ccc(Cl)cc6)CC5)nc(OCC(F)(F)F)n4)cc3)CC2C1` (centres unmarked) [Compound 1010]: the EC50 was in the range of 0.01 to 10 nM.

`NC(=O)C(=O)N1CC2CN(C(=O)c3ccc(Nc4nc(NC5(c6ccc(Cl)cc6)CC5)nc(OCC(F)(F)F)n4)cc3)CC2C1` (centres unmarked) [Compound 1003]: the EC50 fell in the range of 0.01 to 10 nM.

Take `CNC(=O)C(=O)N1CC2CN(C(=O)c3ccc(Nc4nc(NC5(c6ccc(Cl)cc6)CC5)nc(OCC(F)(F)F)n4)cc3)CC2C1` (centres unmarked) [Compound 1017]: the EC50 was in the range of 10 to 1000 nM.

Take `O=C(NCc1ccc(F)cc1)C(=O)N1CC2CN(C(=O)c3ccc(Nc4nc(NC5(c6ccc(Cl)cc6)CC5)nc(OCC(F)(F)F)n4)cc3)CC2C1` (centres unmarked) [Compound 1002]: the EC50 was in the range of 0.01 to 10 nM.

For `O=C(Nc1ccccc1)C(=O)N1CC2CN(C(=O)c3ccc(Nc4nc(NC5(c6ccc(Cl)cc6)CC5)nc(OCC(F)(F)F)n4)cc3)CC2C1` (centres unmarked) [Compound 1011], the EC50 was in the range of 0.01 to 10 nM.

Turning to `CN(C)C(=O)C(=O)N1CC2CN(C(=O)c3ccc(Nc4nc(NC5(c6ccc(Cl)cc6)CC5)nc(OCC(F)(F)F)n4)cc3)CC2C1` (centres unmarked) [Compound 1005], the EC50 is 0.01 to 10 nM.

In the case of `CC(C)CNC(=O)C(=O)N1CC2CN(C(=O)c3ccc(Nc4nc(NC5(c6ccc(Cl)cc6)CC5)nc(OCC(F)(F)F)n4)cc3)CC2C1` (centres unmarked) [Compound 1012], the EC50 was 0.01 to 10 nM.

Still in this test, the particulars now being: Hepatitis C virus, Huh-7, 48 h, read-out: EC50 (nM) 1a H77C).
Regarding `Cc1ccc(NC(=O)C(=O)N2CC3CN(C(=O)c4ccc(Nc5nc(NC6(c7ccc(Cl)cc7)CC6)nc(OCC(F)(F)F)n5)cc4)CC3C2)cc1` (centres unmarked) [Compound 1001], the EC50 came to 0.12 nM.

Regarding `CNC(=O)C(=O)N1CC2CN(C(=O)c3ccc(Nc4nc(NC5(c6ccc(Cl)cc6)CC5)nc(OCC(F)(F)F)n4)cc3)CC2C1` (centres unmarked) [Compound 1017], the EC50 is 11.1 nM.

With `CN(C)C(=O)C(=O)N1CC2CN(C(=O)c3ccc(Nc4nc(NC5(c6ccc(Cl)cc6)CC5)nc(OCC(F)(F)F)n4)cc3)CC2C1` (centres unmarked) [Compound 1005], the EC50 came out at 2.68 nM.
